Consider two compounds from publication PMC2730022 (Journal of medicinal chemistry, 2009).

One assay concerns KB cells. Nature of the assay: Protection from growth inhibition by nucleosides and AICA in KB cells. In kind it is cell-based, human.
The next assay relates to FRα. As to conditions: RT16 cells; folic acid = 1; cited from earlier work.
In the next assay the test system is FRβ. The conditions noted are these: D4 cells; folic acid = 1; cited from earlier work.

Consider `Nc1nc2sc(CCCCc3ccc(C(=O)N[C@@H](CCC(=O)O)C(=O)O)cc3)cc2c(=O)[nH]1` [Compound 4, N-{4-[4-(2-amino-4-oxo-3,4-dihydrothieno[2,3-d]pyrimidin-6-yl)butyl]benzoyl}-L-glutamic acid], for which the “Growth in the presence of AICA at higher concentrations” value with KB cells (AICA 320 μM, compound above 100 nM) is recorded as “still significantly inhibited”. Further, in the assay on KB cells (AICA 320 μM, compound ≤ 50 nM), the “Protection by AICA from toxicity at low and medium concentrations” value is listed as “almost completely protected”. The “Protection by adenosine from growth inhibitory effects” value in the assay on KB cells (adenosine 60 μM) is listed as “completely protective”. Besides, the “Effect of thymidine on growth inhibitory effects” value with KB cells (thymidine 10 μM) is listed as “did not alter”.

On to `Nc1nc2c(c(=O)[nH]1)N(C=O)C(CNc1ccc(C(=O)N[C@@H](CCC(=O)O)C(=O)O)cc1)CN2` (stereo partly drawn) [LCV, (6R,S) 5-formyl tetrahydrofolate], for which, in the assay with FRα, the “Relative binding affinity for FRα” value is on record as 0.25-0.45. For the same compound, in the assay on FRβ, the “Relative binding affinity for FRβ” value was less than 0.01.
